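All cell lines were grown in 96-well plates and treated with compound for 48 hours. GI50 = concentration required for 50% inhibition of growth.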 The source made the active and inactive calls. Rule as the data show it: active = GI50 up to about 1.1 µM and inactive = higher.
Legend:
Assay in all cases: NCI anticancer screen, dose series, 48 h
SF-295 = system: SF-295
ACHN = system: ACHN
T47D = system: T47D
SNB-19 = system: SNB-19
OVCAR-8 = system: OVCAR-8
SK-OV-3 = system: SK-OV-3
NCI-H23 = system: NCI-H23
NCI-H460 = system: NCI-H460
NCI-H522 = system: NCI-H522
OVCAR-4 = system: OVCAR-4
HL-60 = system: HL-60
COLO 205 = system: COLO 205
SF-268 = system: SF-268
HOP-92 = system: HOP-92
A549 = system: A549
MDA-N = system: MDA-N
DU-145 = system: DU-145
UACC-62 = system: UACC-62
IGROV-1 = system: IGROV-1
BT-549 = system: BT-549

Row | Structure (SMILES) | GI50 (SF-295) | GI50 (ACHN) | GI50 (T47D) | GI50 (SNB-19) | GI50 (OVCAR-8) | GI50 (SK-OV-3) | GI50 (NCI-H23) | GI50 (NCI-H460) | GI50 (NCI-H522) | GI50 (OVCAR-4) | GI50 (HL-60) | GI50 (COLO 205) | GI50 (SF-268) | GI50 (HOP-92) | GI50 (A549) | GI50 (MDA-N) | GI50 (DU-145) | GI50 (UACC-62) | GI50 (IGROV-1) | GI50 (BT-549)
1 | CN(C)CCCNC(CC#N)CCC#N (centres undefined) | > 10 µM (inactive) | > 10 µM (inactive) | > 10 µM (inactive) | > 10 µM (inactive) | > 10 µM (inactive) | > 10 µM (inactive) | > 10 µM (inactive) | > 10 µM (inactive) | > 10 µM (inactive) | > 10 µM (inactive) | > 10 µM (inactive) | > 10 µM (inactive) | > 10 µM (inactive) | > 10 µM (inactive) | > 10 µM (inactive) | > 10 µM (inactive) | > 10 µM (inactive) | > 10 µM (inactive) | > 10 µM (inactive) | > 10 µM (inactive)
2 | COC1C(=O)CCC2(CO2)C1(O)C1(C)OC1CCC(C)C (centres undefined) | 13.6 µM (inactive) | 28.2 µM (inactive) | 52.8 µM (inactive) | 34.2 µM (inactive) | 28 µM (inactive) | > 100 µM (inactive) | 22.6 µM (inactive) | < 0.01 µM (active) | > 100 µM (inactive) | > 100 µM (inactive) | 42.8 µM (inactive) | 23.9 µM (inactive) | 78.3 µM (inactive) | > 100 µM (inactive) |  | 29.4 µM (inactive) | 5.6 µM (inactive) | 36.2 µM (inactive) | 48.1 µM (inactive) | > 100 µM (inactive)
3 | O=C(O)Cc1cc(O)c(CC(=O)O)cc1O | > 100 µM (inactive) | > 100 µM (inactive) | > 100 µM (inactive) | > 100 µM (inactive) | > 100 µM (inactive) |  | > 100 µM (inactive) | > 100 µM (inactive) | > 100 µM (inactive) | > 100 µM (inactive) | > 100 µM (inactive) |  | > 100 µM (inactive) | > 100 µM (inactive) | > 100 µM (inactive) | > 100 µM (inactive) | > 100 µM (inactive) | > 100 µM (inactive) | > 100 µM (inactive) | > 100 µM (inactive)
4 | Cc1cc(N(CCCl)CCCl)ccc1/C=N/NC(=O)Cc1cc(=O)oc2cc(O)ccc12 | 17.2 µM (inactive) | 6.67 µM (inactive) | 6.85 µM (inactive) | 18 µM (inactive) | 19.5 µM (inactive) |  | 19.5 µM (inactive) | 8.93 µM (inactive) | 13.7 µM (inactive) | 16.6 µM (inactive) | 12.2 µM (inactive) | 17.7 µM (inactive) | 10.2 µM (inactive) | 27 µM (inactive) | 12.2 µM (inactive) | 12.7 µM (inactive) | 18.5 µM (inactive) | 2.37 µM (inactive) | 15.8 µM (inactive) | 13.4 µM (inactive)
5 | O=C1NC(N2CCOCC2)=N/C1=C\c1ccco1 | > 100 µM (inactive) | > 100 µM (inactive) | > 100 µM (inactive) | > 100 µM (inactive) | > 100 µM (inactive) | > 100 µM (inactive) | > 100 µM (inactive) |  | > 100 µM (inactive) | > 100 µM (inactive) | > 100 µM (inactive) | > 100 µM (inactive) | > 100 µM (inactive) | > 100 µM (inactive) | > 100 µM (inactive) | > 100 µM (inactive) | > 100 µM (inactive) | > 100 µM (inactive) | > 100 µM (inactive) | > 100 µM (inactive)
6 | COc1cc(C2c3cc4c(cc3OC(NN)C2C)OCO4)cc(OC)c1O (centres undefined) | 3.85 µM (inactive) |  | 7.28 µM (inactive) | 32.5 µM (inactive) | 16.5 µM (inactive) |  | 27 µM (inactive) |  | 5.96 µM (inactive) | 26.8 µM (inactive) | 2.24 µM (inactive) | 15.2 µM (inactive) | 28.3 µM (inactive) | 23.6 µM (inactive) | 8.2 µM (inactive) | 1.84 µM (inactive) | 15.3 µM (inactive) | 4.92 µM (inactive) | 5.94 µM (inactive) | 10.3 µM (inactive)
7 | O=C(/C=C/c1ccccc1)c1cc(CN2CCOCC2)c(O)c(CN2CCOCC2)c1 | 19.1 µM (inactive) | 2.32 µM (inactive) | 20 µM (inactive) | 94 µM (inactive) | 25.2 µM (inactive) |  | 22.5 µM (inactive) | 6.71 µM (inactive) | > 100 µM (inactive) |  | 4.57 µM (inactive) | 11.3 µM (inactive) | 19.1 µM (inactive) | 12.1 µM (inactive) | 17.9 µM (inactive) | 19.7 µM (inactive) | 16 µM (inactive) | 17 µM (inactive) | > 100 µM (inactive) | 28 µM (inactive)
8 | CC1C(C#N)(C#N)C(C#N)=C(N)C1(Cl)[N+](=O)[O-] (centres undefined) | 18.8 µM (inactive) | 11.3 µM (inactive) | 15.7 µM (inactive) | 19.3 µM (inactive) | 14.9 µM (inactive) | 17 µM (inactive) | 18.7 µM (inactive) |  | 2.3 µM (inactive) | 12.8 µM (inactive) | 2.37 µM (inactive) | 4.9 µM (inactive) | 14.9 µM (inactive) | 2.08 µM (inactive) | 21.7 µM (inactive) | 9.04 µM (inactive) | 16.7 µM (inactive) | 11.4 µM (inactive) | 7.45 µM (inactive) | 13.3 µM (inactive)

Reference: ChEMBL document CHEMBL1201862, “PubChem BioAssay data set” (2004)
